The values below come from patent US10994018B2, “Long-acting palmitic acid-conjugated GnRH derivative, and pharmaceutical composition containing same” (priority 2017, dated 2021).

Like-named read-outs stand apart in the source and are kept apart here. Where a SMILES comes first, the peptide text is derived from it. [ ]: non-standard residue; d: D form. The star is where a group is joined. Palmitoyl = CCCCCCCCCCCCCCCC(=O)*

For series [1] the following is noted: emulsion; same dose (Peng et al., 2010); cited from earlier work.
Series [2] can be described thus: Blood concentration and pharmacokinetics after single subcutaneous administration to rats (LC/MSMS). The format is in vivo, female SD rats. Conditions: rat. The protocol: Before administration and at 0.5, 1, 2, and 6 hours and on days 1, 3, 7, 10, 14, 21, and 28 after administration, blood samples were taken from the tail vein of the rats and measured for the blood concentrations of Leuprolide and GnRH derivatives, using LC/MSMS. If the concentration reached about 4 ng/mL at a specific time point, no measurements were further made for the next time point. The measurement results are graphically depicted in FIGS. 4 to 6. Based on the results, pharmacokinetic analysis was carried out by calculating the half-life (t1/2), clearance rate (CL), volume of distribution (Vd), time to reach the maximum concentration following drug administration (Tmax), maximum concentration following drug administration (Cmax), and systemic exposure to drug (AUCt). The analysis results are as follows.

For series [3] the following is noted: cited from earlier work.
Series [4] deals with prostate cancer cell line DU-145. In words: Cell death assay (Cell Counting Kit-8) on prostate cancer cells. The format is cell-based. The protocol: GnRH derivatives are clinically applied to the treatment of diseases including breast cancer, prostate cancer, endometriosis, central precocious puberty, and the like. The DU-145 cell line, which is a type of prostate cancer cells, was cultured in T75 flasks containing an adequate amount of RPIM 1640 culture medium (containing 10% FBS, penicillin/streptomycin, and 1% non-essential amino acids) in a sterile incubator having 5% CO2/95% air at 37° C. Cell death assay was performed using the Cell Counting Kit-8 (CCK-8, manufactured by DOJINDO). The […] cells were separated from the T75 flasks by trypsinization treatment and transferred to 96-well plates at a density of 1×10^4 cells/well, followed by incubation for one hour for attachment. Subsequently, the cells were treated with various concentrations of GnRH or GnRH derivatives, and control reagents. Specifically, 1% DMSO was used as a negative control for cell death while 0.1% SDS served as a positive control. After 48 hours of incubation, the existing culture medium was removed, and 100 μL of fresh culture medium and 10 μL of CCK-8 solution were applied to each well. Again, after 48 hours of incubation, the medium solution was replaced by 100 μL of fresh culture medium and 10 μL of CCK-8 solution. The cells were incubated for 4 hours, and then the absorbance was measured at 450 nm to assess cell viability.

Setting [5] is: female, SD, in vivo, sc, 12.5 mg/kg.
[6] abbreviates: female, SD, in vivo, sc, 12.5 mg/kg, blood concentration, Mean.

As for dexamethasone palmitate, the “anti-inflammatory effect, fold higher than dexamethasone alone” value in series [1] is listed as 5.6 fold.
Compound `CCCCCCCCCCCCCCCC(=O)N[C@@H](CCC(N)=O)C(=O)N[C@@H](Cc1c[nH]cn1)C(=O)N[C@@H](Cc1c[nH]c2ccccc12)C(=O)N[C@@H](CO)C(=O)N[C@@H](Cc1ccc(O)cc1)C(=O)N[C@H](CC(C)C)C(=O)N[C@@H](CC(C)C)C(=O)N[C@@H](CCCNC(=N)N)C(=O)N1CCC[C@H]1C(=O)NCC` [Derivative P4, Palmitate-Gln-His-Trp-Ser-Tyr-DLeu-Leu-Arg-Pro-NHEt] (Palmitoyl-QHWSY[dL]LRP-NHEt) showed a level at 504 h in series [2] (female, SD, blood, sc, 12.5 mg/kg, s.c. once 12.5 mg/kg, 21 days) of 1.26 ng/mL. Besides, in series [2] (s.c. once 12.5 mg/kg), the “CL (clearance rate)” value is recorded as 0.075 (mg/kg)/(ng/ml)/day and the “Vd (volume of distribution)” value was 0.436 (mg/kg)/(ng/ml).
Take `CC(C)C[C@H](NC(=O)CNC(=O)[C@H](Cc1ccc(O)cc1)NC(=O)[C@H](CO)NC(=O)[C@H](Cc1c[nH]c2ccccc12)NC(=O)[C@H](Cc1cnc[nH]1)NC(=O)[C@@H]1CCC(=O)N1)C(=O)N[C@@H](CCCNC(=N)N)C(=O)N1CCC[C@H]1C(=O)NCC(N)=O` [GnRH]: the “in vivo half-life in circulating blood” value in series [3] was 2 to 4 min.
For `CCCCCCCCCCCCCCCC(=O)N[C@@H](CCC(N)=O)C(=O)N[C@@H](Cc1c[nH]cn1)C(=O)N[C@@H](Cc1c[nH]c2ccccc12)C(=O)N[C@@H](CO)C(=O)N[C@@H](Cc1ccc(O)cc1)C(=O)N[C@H](CC(C)C)C(=O)N[C@@H](CC(C)C)C(=O)N[C@@H](CCCNC(=N)N)C(=O)N1CCC[C@H]1C(=O)NCC` [Derivative P2, Palmitate-Gln-His-Trp-Ser-Tyr-DLeu-Leu-Arg-Pro-NHEt] (Palmitoyl-QHWSY[dL]LRP-NHEt), the “fold greater cytotoxic effects compared to Leuprolide or GnRH” value in series [4] was 7- to 7.5 fold. The level at 0.5 h in series [2] (female, SD, blood, sc, 12.5 mg/kg, s.c. once 12.5 mg/kg, 0.5 hr., read-out: blood concentration, Mean) turned out to be 11.8 ng/mL. Further, the level at 1 h in series [2] (female, SD, blood, sc, 12.5 mg/kg, s.c. once 12.5 mg/kg, 1 hr., read-out: blood concentration, Mean) was determined as 16.9 ng/mL. Also, the level at 2 h in series [2] (female, SD, blood, sc, 12.5 mg/kg, s.c. once 12.5 mg/kg, 2 hr., read-out: blood concentration, Mean) is 29.1 ng/mL. For the same compound, the level at 6 h in series [2] (female, SD, blood, sc, 12.5 mg/kg, s.c. once 12.5 mg/kg, 6 hr., read-out: blood concentration, Mean) was 52.2 ng/mL. Moreover, the level at 24 h in series [2] (female, SD, blood, sc, 12.5 mg/kg, s.c. once 12.5 mg/kg, 1 day) was determined as 45 ng/mL. The level at 168 h in series [2] (female, SD, blood, sc, 12.5 mg/kg, s.c. once 12.5 mg/kg, 7 days) came out at 11.9 ng/mL. In addition, in series [2] (female, SD, blood, sc, 12.5 mg/kg, s.c. once 12.5 mg/kg, 10 days), the level at 240 h was 8.18 ng/mL. Also, the level at 336 h in series [2] (female, SD, blood, sc, 12.5 mg/kg, s.c. once 12.5 mg/kg, 14 days) was found to be 4.35 ng/mL. For the same compound, in series [2] (s.c. once 12.5 mg/kg), the “CL (clearance rate)” value was 0.051 (mg/kg)/(ng/ml)/day and the “Vd (volume of distribution)” value is on record as 0.351 (mg/kg)/(ng/ml).
Take `CCCCCCCCCCCCOS(=O)(=O)[O-].[Na+]` [0.1% SDS, reference compound]: the “Viability relative to control (%)” value in series [4] (DU-145 cells, positive control at 0.1%) is 21.7%.
In the case of `CCCCCCCCCCCCCCCC(=O)N[C@@H](CCC(=O)O)C(=O)N[C@@H](Cc1c[nH]cn1)C(=O)N[C@@H](Cc1c[nH]c2ccccc12)C(=O)N[C@@H](CO)C(=O)N[C@@H](Cc1ccc(O)cc1)C(=O)N[C@H](CC(C)C)C(=O)N[C@@H](CC(C)C)C(=O)N[C@@H](CCCNC(=N)N)C(=O)N1CCC[C@H]1C(=O)NCC` [Derivative P3, Palmitate-Glu-His-Trp-Ser-Tyr-DLeu-Leu-Arg-Pro-NHEt] (Palmitoyl-EHWSY[dL]LRP-NHEt), the “fold greater cytotoxic effects compared to Leuprolide or GnRH” value in series [4] is 7- to 7.5 fold.
In general, AUC(0-t) refers to exposure summed from dosing to a finite time, without extrapolation to infinity. A high value points to more exposure. By Cmax is commonly meant the peak of the concentration-time curve. A word on the Tmax: it is the time from dosing to the highest level. In general, half-life refers to the time needed for the level to fall by half in the phase considered. Higher therefore signals slow loss. Take `CCNC(=O)[C@@H]1CCCN1C(=O)[C@H](CCCNC(=N)N)NC(=O)[C@H](CC(C)C)NC(=O)[C@@H](CC(C)C)NC(=O)[C@H](Cc1ccc(O)cc1)NC(=O)[C@H](CO)NC(=O)[C@H](Cc1c[nH]c2ccccc12)NC(=O)[C@H](Cc1c[nH]cn1)NC(=O)[C@@H]1CCC(=O)N1` [Leuprolide, pyroGlu-His-Trp-Ser-Tyr-DLeu-Leu-Arg-Pro-NHEt, reference compound]: the “cell death rate on prostate cancer cells” value in series [4] (DU-145 cells) was “about 10%”. In series [2] (setting [5]), the exposure AUC(0-t) is 1660 ng·h/mL, the peak level (Cmax) was 1020 ng/mL, the time of peak concentration (Tmax) is 28.8 min and the half-life is 43.2 min. In addition, in series [2] (setting [6]), the level at 0.5 h came out at 1020 ng/mL, the level at 1 h came to 769 ng/mL, the level at 2 h is 228 ng/mL and the level at 6 h turned out to be 2.88 ng/mL. In series [2] (in vivo, sc, 12.5 mg/kg), the “CL (clearance rate)” value is on record as 0.180 (mg/kg)/(ng/ml)/day and the “Vd (volume of distribution)” value is on record as 0.007 (mg/kg)/(ng/ml).
